Test system: MV-4-11 cells
Experiment: Gene expression microarray analysis (Affymetrix PrimeView) and GSEA
Format: cell-based, human
Design: RFU PODN (11730768_x_at) / Fold change /veh PODN (11730768_x_at) / RFU LINC00158 (11744669_a_at) / Fold change /veh LINC00158 (11744669_a_at) / RFU DUSP10 (11751237_a_at) / Fold change /veh DUSP10 (11751237_a_at) / RFU ID3 (11757404_x_at) / Fold change /veh ID3 (11757404_x_at) / RFU PLEKHG5 (11737974_s_at) / Fold change /veh PLEKHG5 (11737974_s_at) / RFU LRRC4B (11730491_at) / Fold change /veh LRRC4B (11730491_at) / RFU GIMAP4 (11747438_a_at) / Fold change /veh GIMAP4 (11747438_a_at) / RFU KRT8 (11758183_x_at) / Fold change /veh KRT8 (11758183_x_at) / RFU CNN1 (11734310_a_at) / Fold change /veh CNN1 (11734310_a_at) / RFU VPS37D (11726825_at) / Fold change /veh VPS37D (11726825_at) / RFU C10orf10 (11716522_x_at) / Fold change /veh C10orf10 (11716522_x_at) / RFU KIR2DL2 /// KIR2DL4 /// KIR2DL5A /// KIR2DL5B /// KIR2DS1 /// KIR2DS2 /// KIR2DS3 /// KIR2DS4 /// KIR3DL3 /// KIR3DL3 /// KIR3DS1 (11738374_at) / Fold change /veh KIR2DL2 /// KIR2DL4 /// KIR2DL5A /// KIR2DL5B /// KIR2DS1 /// KIR2DS2 /// KIR2DS3 /// KIR2DS4 /// KIR3DL3 /// KIR3DL3 /// KIR3DS1 (11738374_at) / RFU C1QL1 (11718748_at) / Fold change /veh C1QL1 (11718748_at) / RFU TMPRSS4 (11747572_a_at) / Fold change /veh TMPRSS4 (11747572_a_at) / RFU HAMP (11756126_x_at) / Fold change /veh HAMP (11756126_x_at) / RFU RNFT2 (11725882_a_at) / Fold change /veh RNFT2 (11725882_a_at) / RFU NR4A2 (11747474_a_at) / Fold change /veh NR4A2 (11747474_a_at) / RFU ABCC12 (11746883_a_at) / Fold change /veh ABCC12 (11746883_a_at) / RFU TMEM136 (11760407_x_at) / Fold change /veh TMEM136 (11760407_x_at) / RFU CLDN22 /// WWC2 (11732394_at) / Fold change /veh CLDN22 /// WWC2 (11732394_at) / RFU HLA-DPB1 (11760878_x_at) / Fold change /veh HLA-DPB1 (11760878_x_at) / RFU SPINT1 (11716480_a_at) / Fold change /veh SPINT1 (11716480_a_at) / RFU GAP43 (11754022_s_at) / Fold change /veh GAP43 (11754022_s_at) / RFU A4GNT (11735810_at) / Fold change /veh A4GNT (11735810_at) / RFU PRB3 (11715151_x_at) / Fold change /veh PRB3 (11715151_x_at) / RFU TUBB4B (11761932_at) / Fold change /veh TUBB4B (11761932_at) / RFU CAPN14 (11732068_a_at) / Fold change /veh CAPN14 (11732068_a_at) / RFU TMCC2 (11721928_a_at) / Fold change /veh TMCC2 (11721928_a_at) / RFU IRGQ (11745062_a_at) / Fold change /veh IRGQ (11745062_a_at) / RFU FAM174B (11720279_a_at) / Fold change /veh FAM174B (11720279_a_at) / RFU TMPRSS4 (11748680_a_at) / Fold change /veh TMPRSS4 (11748680_a_at) / RFU FAM212B (11763350_a_at) / Fold change /veh FAM212B (11763350_a_at) / RFU PLEKHG5 (11743358_a_at) / Fold change /veh PLEKHG5 (11743358_a_at) / RFU ZSCAN30 (11745921_a_at) / Fold change /veh ZSCAN30 (11745921_a_at) / RFU CMKLR1 (11741424_a_at) / Fold change /veh CMKLR1 (11741424_a_at) / RFU LOC101060620 /// MAPK8IP1 (11723275_at) / Fold change /veh LOC101060620 /// MAPK8IP1 (11723275_at) / RFU SPTSSB (11747773_x_at) / Fold change /veh SPTSSB (11747773_x_at) / RFU PRSS12 (11739890_at) / Fold change /veh PRSS12 (11739890_at) / RFU BIN1 (11741810_x_at) / Fold change /veh BIN1 (11741810_x_at) / RFU WNT11 (11732464_a_at) / Fold change /veh WNT11 (11732464_a_at) / RFU C10orf10 (11716521_a_at) / Fold change /veh C10orf10 (11716521_a_at) / RFU C5orf56 (11738089_at) / Fold change /veh C5orf56 (11738089_at) / RFU CYB561 (11721691_x_at) / Fold change /veh CYB561 (11721691_x_at) / RFU ANKRD19P (11752326_a_at) / Fold change /veh ANKRD19P (11752326_a_at) / RFU OR2T12 /// OR2T33 /// OR2T8 (11738714_s_at) / Fold change /veh OR2T12 /// OR2T33 /// OR2T8 (11738714_s_at) / RFU VCAN (11748164_a_at) / Fold change /veh VCAN (11748164_a_at) / RFU JSRP1 (11732532_at) / Fold change /veh JSRP1 (11732532_at) / RFU KRTAP10-11 (11738290_x_at) / Fold change /veh KRTAP10-11 (11738290_x_at) / RFU MYO3A (11730013_a_at) / Fold change /veh MYO3A (11730013_a_at) / RFU EBF3 (11725865_a_at) / Fold change /veh EBF3 (11725865_a_at) / RFU CAMK2N1 (11719241_x_at) / Fold change /veh CAMK2N1 (11719241_x_at) / RFU C5orf56 (11738088_a_at) / Fold change /veh C5orf56 (11738088_a_at) / RFU OLFML3 (11715873_a_at) / Fold change /veh OLFML3 (11715873_a_at) / RFU LOC100653217 /// NTM (11731650_a_at) / Fold change /veh LOC100653217 /// NTM (11731650_a_at) / RFU MAPK11 (11762145_a_at) / Fold change /veh MAPK11 (11762145_a_at) / RFU FIZ1 (11724087_x_at) / Fold change /veh FIZ1 (11724087_x_at) / RFU OASL (11726364_x_at) / Fold change /veh OASL (11726364_x_at) / RFU SOX15 (11748057_x_at) / Fold change /veh SOX15 (11748057_x_at) / RFU CD79A (11719716_a_at) / Fold change /veh CD79A (11719716_a_at) / RFU HIST1H1D (11736915_at) / Fold change /veh HIST1H1D (11736915_at) / RFU CASKIN2 (11723855_a_at) / Fold change /veh CASKIN2 (11723855_a_at) / RFU LOC730098 (11760151_x_at) / Fold change /veh LOC730098 (11760151_x_at) / RFU OR4N2 (11742367_at) / Fold change /veh OR4N2 (11742367_at) / RFU PRRT2 (11749266_a_at) / Fold change /veh PRRT2 (11749266_a_at) / RFU SNX32 (11753110_a_at) / Fold change /veh SNX32 (11753110_a_at) / RFU CDHR5 (11726645_a_at) / Fold change /veh CDHR5 (11726645_a_at) / RFU RCAN1 (11760418_a_at) / Fold change /veh RCAN1 (11760418_a_at) / RFU FAM167A (11723789_a_at) / Fold change /veh FAM167A (11723789_a_at) / RFU FAM26E (11764081_at) / Fold change /veh FAM26E (11764081_at) / RFU ISYNA1 (11749810_s_at) / Fold change /veh ISYNA1 (11749810_s_at) / RFU ACY1 (11761880_at) / Fold change /veh ACY1 (11761880_at) / RFU 11764098_at / Fold change /veh 11764098_at / RFU SAMD14 (11745864_x_at) / Fold change /veh SAMD14 (11745864_x_at) / RFU NPB (11741838_a_at) / Fold change /veh NPB (11741838_a_at) / RFU TMPRSS6 (11731388_a_at) / Fold change /veh TMPRSS6 (11731388_a_at) / RFU KRTAP10-2 (11738614_at) / Fold change /veh KRTAP10-2 (11738614_at) / RFU ARHGAP8 /// PRR5-ARHGAP8 (11727945_x_at) / Fold change /veh ARHGAP8 /// PRR5-ARHGAP8 (11727945_x_at) / RFU KRTAP5-7 /// NADSYN1 (11734609_at) / Fold change /veh KRTAP5-7 /// NADSYN1 (11734609_at) / RFU RASL12 (11751679_a_at) / Fold change /veh RASL12 (11751679_a_at) / RFU CDKN2B (11736163_a_at) / Fold change /veh CDKN2B (11736163_a_at) / RFU PRF1 (11729649_at) / Fold change /veh PRF1 (11729649_at) / RFU, ZNF638 /// ZNF638-IT1 / Fold change vs veh, ZNF638 /// ZNF638-IT1 / RFU, PANK3 / Fold change vs veh, PANK3 / RFU, SH3YL1 / Fold change vs veh, SH3YL1 / RFU, ZEB2 / Fold change vs veh, ZEB2 / RFU, NRIP1 / Fold change vs veh, NRIP1 / RFU, PTTG1IP / Fold change vs veh, PTTG1IP / RFU, CAPN2 / Fold change vs veh, CAPN2 / RFU, MED14 / Fold change vs veh, MED14 / RFU, SNORA58 / Fold change vs veh, SNORA58 / RFU, C1orf63 / Fold change vs veh, C1orf63 / RFU, LRRFIP1 / Fold change vs veh, LRRFIP1 / RFU, NDUFAF7 / Fold change vs veh, NDUFAF7 / RFU, SLC12A2 / Fold change vs veh, SLC12A2 / RFU, IBTK / Fold change vs veh, IBTK / RFU, ESF1 / Fold change vs veh, ESF1 / Fold change vs veh, TMEM50B / RFU, TAOK1 / Fold change vs veh, TAOK1 / RFU, ACBD3 / Fold change vs veh, ACBD3 / RFU, TMA16 / Fold change vs veh, TMA16 / RFU, RWDD3 / Fold change vs veh, RWDD3 / RFU, BCAT1 / Fold change vs veh, BCAT1 / RFU, EDEM3 / Fold change vs veh, EDEM3 / RFU, TMEM33 / Fold change vs veh, TMEM33 / RFU, WDR75 / Fold change vs veh, WDR75 / RFU, AHCTF1 / Fold change vs veh, AHCTF1 / RFU, TFRC / Fold change vs veh, TFRC / RFU, ZDHHC17 / Fold change vs veh, ZDHHC17 / RFU, NOM1 / Fold change vs veh, NOM1 / RFU, ARL8B / Fold change vs veh, ARL8B / RFU, ZBTB11 / Fold change vs veh, ZBTB11 / RFU, TAMM41 / Fold change vs veh, TAMM41 / RFU, KIAA1704 /// LOC100996395 / Fold change vs veh, KIAA1704 /// LOC100996395 / RFU, ING1 / Fold change vs veh, ING1 / RFU, TRMT61B / Fold change vs veh, TRMT61B / RFU, FUBP3 / Fold change vs veh, FUBP3 / RFU, TP53 / Fold change vs veh, TP53 / RFU, TNKS2 / Fold change vs veh, TNKS2 / RFU, ZFP14 / Fold change vs veh, ZFP14 / RFU, ACTR2 / Fold change vs veh, ACTR2 / RFU, PPP3R1 / Fold change vs veh, PPP3R1 / RFU, PIK3R1 / Fold change vs veh, PIK3R1 / RFU, HNRNPA1 / Fold change vs veh, HNRNPA1 / RFU, RNF170 / Fold change vs veh, RNF170 / RFU, ZNF28 / Fold change vs veh, ZNF28 / RFU, RNGTT / Fold change vs veh, RNGTT / RFU, OGT / Fold change vs veh, OGT / RFU, BRD1 / Fold change vs veh, BRD1 / RFU, MARS / Fold change vs veh, MARS / RFU, ZNF655 / Fold change vs veh, ZNF655 / RFU, FAHD1 / Fold change vs veh, FAHD1 / RFU, BDP1 / Fold change vs veh, BDP1 / RFU, LRRCC1 / Fold change vs veh, LRRCC1 / RFU, ARID1A / Fold change vs veh, ARID1A / RFU, ZNF146 / Fold change vs veh, ZNF146 / RFU, ZNF330 / Fold change vs veh, ZNF330 / RFU, GPN3 / Fold change vs veh, GPN3 / RFU, C9orf123 / Fold change vs veh, C9orf123 / RFU, N4BP2L2 / Fold change vs veh, N4BP2L2 / RFU, ARFIP1 / Fold change vs veh, ARFIP1 / RFU, FAM179B / Fold change vs veh, FAM179B / RFU, BCL10 / Fold change vs veh, BCL10 / RFU, UHRF1BP1L / Fold change vs veh, UHRF1BP1L / RFU, BET1 / Fold change vs veh, BET1 / RFU, CNOT2 / Fold change vs veh, CNOT2 / RFU, ZNF268 / Fold change vs veh, ZNF268 / Fold change vs veh, ZNF507 / RFU, DGCR2 / Fold change vs veh, DGCR2 / RFU, WDSUB1 / Fold change vs veh, WDSUB1 / Fold change vs veh, HSP90B1 /// MIR3652 / RFU, ADSS / Fold change vs veh, ADSS / RFU, GK / Fold change vs veh, GK / RFU, ZNF148 / Fold change vs veh, ZNF148 / RFU, TAF9 / Fold change vs veh, TAF9 / RFU, SLC1A5 / Fold change vs veh, SLC1A5 / RFU, SLMO2 / Fold change vs veh, SLMO2 / RFU, ABCC4 / Fold change vs veh, ABCC4 / RFU, LOC101060439 /// RAP1B / Fold change vs veh, LOC101060439 /// RAP1B / RFU, RFX7 / Fold change vs veh, RFX7 / RFU, GTPBP10 / Fold change vs veh, GTPBP10 / RFU, CNEP1R1 / Fold change vs veh, CNEP1R1 / RFU, BIVM-ERCC5 /// ERCC5 / Fold change vs veh, BIVM-ERCC5 /// ERCC5 / RFU, ILF3 / Fold change vs veh, ILF3 / RFU 11762660_at / Fold change /veh 11762660_at / RFU VCAN (11757783_s_at) / Fold change /veh VCAN (11757783_s_at) / RFU DDX43 (11728927_at) / Fold change /veh DDX43 (11728927_at) / RFU KRT8 (11758188_x_at) / Fold change /veh KRT8 (11758188_x_at) / RFU NKD1 (11759106_at) / Fold change /veh NKD1 (11759106_at) / RFU SRD5A1 (11742802_a_at) / Fold change /veh SRD5A1 (11742802_a_at) / RFU TPSAB1 /// TPSB2 (11721975_s_at) / Fold change /veh TPSAB1 /// TPSB2 (11721975_s_at) / RFU GSTM3 (11746129_a_at) / Fold change /veh GSTM3 (11746129_a_at) / RFU IL23R (11737362_x_at) / Fold change /veh IL23R (11737362_x_at) / RFU TMEM51 (11727254_a_at) / Fold change /veh TMEM51 (11727254_a_at) / RFU PIWIL2 (11732686_x_at) / Fold change /veh PIWIL2 (11732686_x_at) / RFU ORM1 (11744905_x_at) / Fold change /veh ORM1 (11744905_x_at) / RFU CCDC152 (11743942_at) / Fold change /veh CCDC152 (11743942_at) / RFU ECM1 (11717891_a_at) / Fold change /veh ECM1 (11717891_a_at) / RFU IL23R (11748794_a_at) / Fold change /veh IL23R (11748794_a_at) / RFU TNFAIP8L3 (11732012_x_at) / Fold change /veh TNFAIP8L3 (11732012_x_at) / RFU MBOAT4 (11741988_at) / Fold change /veh MBOAT4 (11741988_at) / RFU 11764193_at / Fold change /veh 11764193_at / RFU TMEM53 (11763286_at) / Fold change /veh TMEM53 (11763286_at) / RFU MAGEB2 (11727129_at) / Fold change /veh MAGEB2 (11727129_at) / RFU TMEM200A (11744735_a_at) / Fold change /veh TMEM200A (11744735_a_at) / RFU CCDC152 (11751479_a_at) / Fold change /veh CCDC152 (11751479_a_at) / RFU FAM211A (11726209_a_at) / Fold change /veh FAM211A (11726209_a_at) / RFU RGS16 (11746705_a_at) / Fold change /veh RGS16 (11746705_a_at) / RFU VCAN (11755009_s_at) / Fold change /veh VCAN (11755009_s_at) / RFU RHOB (11743442_s_at) / Fold change /veh RHOB (11743442_s_at) / RFU RGS16 (11720943_a_at) / Fold change /veh RGS16 (11720943_a_at) / RFU RGS16 (11720944_at) / Fold change /veh RGS16 (11720944_at) / RFU, VPS4B / Fold change vs veh, VPS4B / RFU, CREB1 / Fold change vs veh, CREB1 / RFU, DNAJC13 / Fold change vs veh, DNAJC13 / RFU, GNAQ / Fold change vs veh, GNAQ / RFU, CDK5R1 / Fold change vs veh, CDK5R1 / RFU, ZRANB3 / Fold change vs veh, ZRANB3 / RFU, CUL4A / Fold change vs veh, CUL4A / RFU, CCNY / Fold change vs veh, CCNY / RFU, UFL1 / Fold change vs veh, UFL1 / RFU, COG3 / Fold change vs veh, COG3 / RFU, DIAPH2 / Fold change vs veh, DIAPH2 / RFU, SKA2 / Fold change vs veh, SKA2 / RFU, AFF3 / Fold change vs veh, AFF3 / RFU, LMF1 / Fold change vs veh, LMF1 / RFU, IPO11 / Fold change vs veh, IPO11 / RFU, DFFB / Fold change vs veh, DFFB / RFU, FOXP1 / Fold change vs veh, FOXP1 / RFU, CARD8 / Fold change vs veh, CARD8 / RFU, STRN3 / Fold change vs veh, STRN3 / RFU, ADK / Fold change vs veh, ADK / RFU, RASSF2 / Fold change vs veh, RASSF2 / RFU, WIPF1 / Fold change vs veh, WIPF1 / RFU, LARP1B / Fold change vs veh, LARP1B / RFU, RASA1 / Fold change vs veh, RASA1 / RFU, RB1 / Fold change vs veh, RB1 / RFU, PPFIA1 / Fold change vs veh, PPFIA1 / RFU, MAT2A / Fold change vs veh, MAT2A / RFU, CCT5 / Fold change vs veh, CCT5 / RFU, WDR92 / Fold change vs veh, WDR92 / RFU, CUX1 / Fold change vs veh, CUX1 / RFU, TTC7A / Fold change vs veh, TTC7A / RFU, TMEM135 / Fold change vs veh, TMEM135 / RFU, DEPTOR / Fold change vs veh, DEPTOR / RFU, CPM / Fold change vs veh, CPM / RFU, DNAJB6 / Fold change vs veh, DNAJB6 / RFU, CACNA2D3 / Fold change vs veh, CACNA2D3 / RFU, DTX4 / Fold change vs veh, DTX4 / RFU, TFCP2 / Fold change vs veh, TFCP2 / RFU, GMCL1 /// GMCL1P1 / Fold change vs veh, GMCL1 /// GMCL1P1 / RFU, AEBP2 / Fold change vs veh, AEBP2 / RFU, SNHG1 /// SNORD22 /// SNORD25 /// SNORD26 /// SNORD27 /// SNORD28 /// SNORD29 /// SNORD31 / Fold change vs veh, SNHG1 /// SNORD22 /// SNORD25 /// SNORD26 /// SNORD27 /// SNORD28 /// SNORD29 /// SNORD31 / Fold change (Aza/veh), C12orf56 (ProbeSet 11735607_a_at) / Fold change (ACY-1035/veh), C12orf56 (ProbeSet 11735607_a_at) / Fold change (Aza/veh), FGFR1OP (ProbeSet 11751329_s_at) / Fold change (ACY-1035/veh), FGFR1OP (ProbeSet 11751329_s_at) / Fold change (Aza/veh), VPS36 (ProbeSet 11739960_a_at) / Fold change (ACY-1035/veh), VPS36 (ProbeSet 11739960_a_at) / RFU SYPL1 (11715823_x_at) / Fold change /veh SYPL1 (11715823_x_at) / RFU IGFBP7 (11715501_s_at) / Fold change /veh IGFBP7 (11715501_s_at) / RFU REEP3 (11722064_at) / Fold change /veh REEP3 (11722064_at) / RFU IGLL1 (11728026_x_at) / Fold change /veh IGLL1 (11728026_x_at): dose or concentration left out as unconfirmed
Conditions: MV-4-11 cells, 48 hours

SMILES: Nc1ncn([C@@H]2O[C@H](CO)[C@@H](O)[C@H]2O)c(=O)n1 [azacitidine]
- RFU LRRC4B (11730491_at): 28.29 RFU
